The target in this experiment is T1, Glucocorticoid receptor (Homo sapiens, UniProt P04150).
T1 sequence (P04150 whole entry): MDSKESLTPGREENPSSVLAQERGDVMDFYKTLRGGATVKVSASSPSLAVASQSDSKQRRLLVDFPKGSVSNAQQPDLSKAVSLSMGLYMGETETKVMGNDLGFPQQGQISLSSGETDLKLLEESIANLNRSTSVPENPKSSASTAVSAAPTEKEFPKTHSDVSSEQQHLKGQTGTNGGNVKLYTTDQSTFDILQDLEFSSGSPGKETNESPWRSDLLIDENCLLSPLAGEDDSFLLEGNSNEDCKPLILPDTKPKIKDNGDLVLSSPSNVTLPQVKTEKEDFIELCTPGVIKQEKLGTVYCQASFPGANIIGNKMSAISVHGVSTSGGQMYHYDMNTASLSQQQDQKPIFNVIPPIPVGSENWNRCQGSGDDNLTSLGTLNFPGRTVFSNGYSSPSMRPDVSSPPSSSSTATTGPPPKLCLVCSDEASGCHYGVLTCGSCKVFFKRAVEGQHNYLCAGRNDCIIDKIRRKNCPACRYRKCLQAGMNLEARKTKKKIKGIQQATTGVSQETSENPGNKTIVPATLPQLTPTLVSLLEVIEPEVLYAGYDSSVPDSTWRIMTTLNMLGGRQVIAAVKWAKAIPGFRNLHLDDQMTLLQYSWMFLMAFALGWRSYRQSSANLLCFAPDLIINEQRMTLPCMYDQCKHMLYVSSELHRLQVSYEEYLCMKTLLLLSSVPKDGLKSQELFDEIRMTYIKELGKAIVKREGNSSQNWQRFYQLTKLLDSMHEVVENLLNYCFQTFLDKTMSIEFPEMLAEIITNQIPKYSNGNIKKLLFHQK

Molecules are shown by their SMILES.

This is an account of results in BindingDB's records for doi:10.1124/jpet.105.085217 (Imperial College, 2005).

The term Ki denotes the equilibrium dissociation constant of an inhibitor or competing ligand from its target. Higher therefore signals weaker binding. The compound `C[C@]12C=CC(=O)C=C1CC[C@@H]1[C@@H]2[C@@H](O)C[C@@]2(C)[C@H]1C[C@H]1O[C@@H](C3CCCCC3)O[C@]12C(=O)CO` [desisobutyryl-ciclesonide] gave a Ki of 0.31 nM.
